We go through 1 molecule from publication PMC5669199, “CM352 Reduces Brain Damage and Improves Functional Recovery in a Rat Model of Intracerebral Hemorrhage” (Journal of the American Heart Association: Cardiovascular …, 2017).

Series [1] can be described thus: Pharmacokinetics of CM352 in rats after intravenous administration. Type of series: in vivo. The note with it: rat, 1 mg/kg intravenous. The method, then: CM352 solutions were prepared by dissolving the solid in saline. A drug dosage of 1 mg/kg was administered as a single intravenous injection in the femoral vein. Blood was collected into citrated tubes, and plasma was obtained by 2‐step centrifugation: first at 600 g for 10 minutes and then at 18 000 g for 2 minutes. Plasma samples were stored at −80°C until analysis. CM352 was measured in plasma samples using a Xevo‐TQ MS triple quadrupole mass spectrometer with an electrospray ionization source and an Acquity UPLC (Waters, Manchester, UK) as previously reported.20 Briefly, after chromatographic separation, the compound was detected using multiple reaction monitoring. Quantification was achieved by external calibration using matrix‐matched standards prepared by adding the appropriate volume of diluted solutions of the compound (in methanol/water 50:50, v:v) to aliquots of 50 μL blank plasma. Pharmacokinetic parameters were obtained by fitting the blood concentration‐time data to a bicompartmental model with the WinNonlin software (Pharsight, Mountain View, CA).

The nature of series [2]: Plasma protein binding. It is filed as in vitro ADME. The settings on record: rat, read-out: Plasma prot binding (% unbound).
Series [3] concerns the target T1, MMP‐12 (Homo sapiens, UniProt P39900).
T1 construct: GenScript (contract testing)
Put plainly: MMP enzyme activity assay. It is filed as biochemical. The note with it: read-out: MMP Inhibitory Activity (IC50), MMP‐12. The method, then:
[…]. Protease stock solutions (10 mmol/L) were diluted with assay buffer to make final test solutions containing no more than 2.0% DMSO. The samples were dispensed into plates; substrate was added and read with PHERAstar PLUS (BMG Labtech, Ortenberg, Germany) plate reader.

Series [4] addresses bacterial collagenase type VII. Put plainly: Collagenase activity assay (FALGPA substrate). It is filed as biochemical. The settings on record: tested 10 nmol/L to 10 μmol/L; no significant effect. On the procedure: Enzymatic assay of collagenase was performed using FALGPA (Sigma‐Aldrich Corp, St. Louis, MO) as substrate, according to the manufacturer's recommendations. Briefly, proteolysis of 1 mmol/L FALGPA by 2 U/mL bacterial collagenase type VII (Sigma‐Aldrich Corp, St. Louis, MO) in reaction buffer (50 mmol/L Tricine; 10 mmol/L CaCl2; 400 mmol/L NaCl) was monitored spectrophotometrically (345 nm) for 5 minutes, in the presence of CM352, phenanthroline, or vehicle.

For series [5], the system named is rat model of collagenase‐induced ICH. Put plainly: Cylinder test (laterality index) in ICH rat model. It is filed as in vivo. The settings on record: 24 hours and 14 days, all P<0.01 vs control. The method, then: Following STAIR criteria, animal models must show neurological and functional deficits in line with the produced lesion. The model of collagenase‐induced hemorrhage primarily damages the striatum, producing a small forelimb paresis contralateral to the lesion. Sensorimotor deficits after ischemic insult were assessed using the cylinder test, as previously described.23 This test evaluates limb asymmetry during the exploratory activity. Each animal was put in a cylinder with a 20‐cm‐diameter transparent base. A video camera was located under this transparent cylinder for recording the vertical exploratory movements of the animal with its anterior limbs for 2 to 10 minutes, depending on movement grade. For image recording and analysis, VirtulDub software was used. Analyzed behaviors were the numbers of times that the animal touched the cylinder wall and independent use of each limb in contact with the cylinder wall in each upward movement. The laterality index was calculated (the number of times that the animal touched the cylinder with the right leg during the ascendant movement by the number of times that the animals touched with each leg). […] An experienced investigator, blind to treatment and neuroimaging data, analyzed the behavioral tests.

Series [6] deals with thrombin‐antithrombin complex. Put plainly: Plasma thrombin‐antithrombin complex ELISA after ICH. Type of series: in vivo, rat. The note with it: 1 mg/kg iv after ICH; data not shown. The method, then:
Blood samples (0.5 mL) were drawn from the tail vein before surgery, immediately after surgery, and at 1 hour, 3 hours, 24 hours, and 14 days. Citrate or EDTA plasma was obtained by centrifugation, and samples were stored at −80°C. Enzyme‐linked immunosorbent assay was used to measure interleukin‐6 (IL‐6, ref. KRC0061, Life Technologies, Thermo Fisher Scientific, Waltham, MA), cellular fibronectin (ref. MBS007311, MyBioSource, San Diego, CA), and thrombin‐antithrombin complex (Enzygnost TAT, ref. OWMG15, Siemens Healthcare, Erlangen, Germany) in plasma, as biomarkers of inflammation, cellular damage, and hypercoagulability, respectively. The intra‐assay and interassay coefficients of variation for all molecular markers were <10%.
(An ELISA detects its analyte on a solid surface through an enzyme-linked reagent.)

Series [7] deals with apoptotic cells in perihematomal area. Put plainly: TUNEL analysis of apoptotic cells in perihematomal area. It is filed as in vivo, rat. The settings on record: 14 days after ICH, n=3. On the procedure: After the completion of the neuroimaging study, 14 days after ICH, animals were euthanized by an overdose of anesthetic (sevoflurane 8%) and perfused with PBS and 4% formaldehyde. The brain was removed, axially sliced (2 mm thick), fixed in 4% formaldehyde (4 hours), transferred to 20% sucrose in PBS (4°C), included in optimal cutting temperature compound (Sakura Finetek, Torrance, CA), and stored at −80°C. Slices were cut into 8‐μm‐thick slices using a cryostat (Sakura Finetek Europe BV, Leiden, The Netherlands).
Brain slices were dried at 38°C for 3 hours, and the optimal cutting temperature compound was then removed by washing the slices twice in PBS. Antigen retrieval was performed by immersion of slices in a thermal bath of citrate buffer (pH 6.0) for 20 minutes at 99°C. To detect apoptotic cells, a terminal deoxynucleotidyl transferase dUTP nick end labeling assay was performed. […] Slices were mounted (Polysciences, Eppelheim, Germany) and photographed in a Leica DMI 6000 B microscope with Leica Application Suite Advance Fluorescence software, version 1.0.0 (LAS AF; Leica Microsystems, Wetzlar, Germany).
A quantitative analysis of terminal deoxynucleotidyl transferase dUTP nick end labeling was performed using 3 animals from each group. […] Positive nuclei were counted manually.

In series [8] the test system is tissue‐type plasminogen activator–induced fibrinolysis in human blood. Details: method as in PMID 25686022. The settings on record: read-out: effective concentration to delay lysis time by 50%; cited from earlier work.

pEC50, pIC50: −log10 of the molar value.

T1 sequence (P39900 106-470, species assumed): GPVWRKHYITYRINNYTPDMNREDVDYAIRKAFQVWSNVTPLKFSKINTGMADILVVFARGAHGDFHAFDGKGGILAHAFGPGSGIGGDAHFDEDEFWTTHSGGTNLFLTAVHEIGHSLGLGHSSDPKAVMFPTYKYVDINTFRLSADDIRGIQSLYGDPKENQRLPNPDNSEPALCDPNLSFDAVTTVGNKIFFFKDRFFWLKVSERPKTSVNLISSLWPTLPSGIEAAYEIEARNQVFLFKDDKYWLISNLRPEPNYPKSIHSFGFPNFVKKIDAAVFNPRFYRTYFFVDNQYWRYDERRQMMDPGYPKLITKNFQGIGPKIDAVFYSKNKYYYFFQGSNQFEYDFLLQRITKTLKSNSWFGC

Turning to `CNC(=O)c1ccc(Oc2ccc(S(=O)(=O)[C@]3(C(=O)NO)CCC4(CCNCC4)C3)cc2)cc1` [CM352, 4‐[4‐[[(3R)‐3‐(Hydroxycarbamoyl)‐8‐azaspiro[4.5]decan‐3‐yl]sulfonyl]phenoxy]‐N‐methylbenzamide], the Kp in series [1] (brain, n=3, read-out: Brain/plasma ratio) came out at 0.0193. Besides, the half-life (in general, the time needed for the level to fall by half in the phase considered) in series [1] (plasma, n=3) was 1.09 h. The Cmax in series [1] (plasma, n=3, read-out: Cmax (maximal plasma concentration)) turned out to be 7.8 µM. Further, the clearance (in general, the volume of plasma or blood freed of the substance per unit of time) in series [1] (plasma, n=3, read-out: Norm. Cl (normalized clearance) (converted)) was 7 mL/min/kg. For the same molecule, in series [1] (plasma, n=3, read-out: Norm. Vz (normalized volume of distribution)), the Vd worked out at 0.66 L/kg. This molecule displayed a maximal plasma concentration in series [1] of 7.8 µmol/L. Besides, in series [1], the “time CM352 remains in blood above 10 nmol/L” value came to 8 h. In addition, in series [2], the fraction unbound is 0.4. Besides, the pIC50 (in general, the IC50 on a negative log10 scale, so that one unit is a factor of ten) in series [3] is 8.12; in series [4], < 5.00. Further, the “sensorimotor recovery (laterality index)” value in series [5] (1 mg/kg 3 hours after collagenase) and in series [5] (1 mg/kg iv 1 hour after collagenase) was “better sensorimotor recovery” in each case. Also, the “thrombin‐antithrombin complex levels versus control” value in series [6] was “no differences”. Moreover, the “apoptosis (TUNEL‐positive cells) in the perihematomal area versus control” value in series [7] is on record as “No effects on apoptosis”. Also, the pEC50 in series [8] is 9.15.
